# Entries after “also recorded” stand apart in the source; their conditions may differ. Ends that are not written are not given here.
# Tests used:
# [1] = tested on: splenic T cells; assay: Autologous mixed lymphocyte reaction, splenic T cells of bleomycin mice; type: in vivo, C57-BL/6 mice
# Text: Recent studies highlighted a key role for T lymphocytes in bleomycin-induced fibrosis (Wilson, M. et al., The Journal of Experimental Medicine, 207(3): 535-552, 2010). […] Specifically, the ability of C57BL/6 purified antigen-presenting cells to induce proliferation in C57BL/6 T lymphocytes was examined in the assay.
# C57-BL/6 mice were subjected to bleomycin injury at day 0. […] Splenic T cells were isolated and cultured alone or in the presence of autologous antigen presenting cells (APCs from C57-BL/6 mice) or stimulated with antibodies against CD3 (α-CD3) for 48 h. The cells then were radiolabeled with […] thymidine for 16 h and assessed for proliferation rates.
# [2] = tested on: phospho-Thr^334-MAPKAPK2 (activated MK2); assay: Activated MK2 immunostaining of lung sections, bleomycin treatment model; type: in vivo, C57-BL/6 mice; settings: day 14 to 28
# Text: Briefly, C57-BL/6 mice were subjected to bleomycin injury at day 0. […] Formalin-fixed lung tissue sections were immunostained against phospho-Thr^334 MK2. Control staining was with biotinylated secondary IgG antibody. Streptavidin-conjugated horseradish peroxidase was used with 3,3′-diaminobenzidene as substrate and nuclei was counterstained with hematoxylin.
# [3] = tested on: IL-6; assay: Plasma cytokine level, bleomycin treatment model; type: in vivo, mouse; settings: 24 hours after final administration
# [4] = tested on: bleomycin-induced lung fibrosis; assay: Bleomycin mouse model of pulmonary fibrosis (treatment model); type: in vivo, C57BL/6 mice; settings: for collagen deposition (hydroxyproline assay, whole left lung): day 28 post bleomycin; for lung scarring, histology (H&E and Masson's blue trichrome): daily day 14 to 28 post bleomycin
# Experimental: (§1) A mouse model of pulmonary fibrosis was generated by administering 0.025 U of bleomycin/PBS intratracheally to C57BL/6 mice. […] At 21 day post bleomycin delivery (for prevention model) or 28 post bleomycin delivery (for treatment model), groups of mice were sacrificed with a sodium pentobarbital injection (120 mg/kg) and the chest cavity was opened. The right mainstem bronchus was ligated and the right lung was removed. The trachea was cannulated and the left lung was perfused with 4% formaldehyde at 21 cm H2O pressure. The tissue blocks then were embedded in paraffin, and […] sections were prepared for staining. Sections from each animal were stained with hematoxylin and eosin (H&E) to visualize cells or with Masson's Trichrome staining to highlight collagen deposition. […] Stained sections were mounted onto a labeled glass slide with organic mounting medium.
# The classic bleomycin model, as depicted in FIG. 10, has been used widely in the literature in the pre-fibrotic stage to test efficacy of any intervention.
# More specifically, fibrotic loci in the lungs were induced by delivering intratracheally about 0.025 U of bleomycin (dissolved in PBS) to C57BL/6 mice. […] Mice were sacrificed with a sodium pentobarbital injection (120 mg/kg) and the chest cavity was opened. The right mainstem bronchus was ligated and the right lung is removed. The trachea was cannulated and the left lung was perfused with 4% formaldehyde at 21 cm H2O pressure. The tissue blocks then were embedded in paraffin, and […] sections were prepared, and stained with hematoxylin and eosin (H&E; for pathological examination) or Masson's Trichrome (for collagen staining)
# Next, collagen deposition was determined quantitatively by using the standard hydroxyproline assay with whole left lung. Total collagen (soluble and insoluble) deposition was assessed by analyzing hydroxyproline concentrations in murine lungs day 28 post bleomycin injury.
# [5] = tested on: alpha-smooth muscle actin (α-SMA); assay: α-SMA immunostaining of lung sections, bleomycin treatment model; type: in vivo, C57-BL/6 mice; settings: day 14 through 28
# Text: C57-BL/6 mice were subjected to bleomycin injury at day 0. […] Formalin-fixed lung tissue sections were immunostained against α-SMA. Control staining was with biotinylated secondary IgG antibody. Streptavidin-conjugated horseradish peroxidase was used with 3,3′-diaminobenzidene as substrate and nuclei was counterstained with hematoxylin. Original magnifications: 20×
# [6] = tested on: human fetal lung fibroblasts (IMR-90), α-SMA; assay: TGF-β-induced myofibroblast activation, α-SMA immunoblot; type: cell-based; settings: 1 h pre-treatment, then TGF-β1 (2 ng/ml) 48 h
# Text: Cell lysates were immunoblotted against antibodies for α-SMA (a marker for myofibroblast activation) and GAPDH (loading control).
# [7] = tested on: bleomycin-induced lung fibrosis; assay: Bleomycin mouse model of pulmonary fibrosis (prevention model); type: in vivo, C57BL/6 mice; settings: for collagen accumulation (Masson's Trichrome staining) / fibrotic loci formation / lung fibrosis (H&E staining): daily day 7 to 21 post bleomycin
# Experimental: as §1
# Briefly, fibrotic loci in the lungs of the mice were induced by delivering intratracheally about 0.025 U of bleomycin (dissolved in PBS) to C57BL/6 mice. […] Briefly, mice were sacrificed with a sodium pentobarbital injection (120 mg/kg) and the chest cavity was opened. The right mainstem bronchus was ligated and the right lung was removed. The trachea was cannulated and the left lung was perfused with 4% formaldehyde at 21 cm H2O pressure. The tissue blocks then were embedded in paraffin, and […] sections were prepared, and stained with hematoxylin and eosin (H&E; for pathological examination) or Masson's Trichrome (for collagen staining)
# Next, total collagen levels in the lungs of the bleomycin-injured mice (FIG. 12) were analyzed quantitatively by computing a constant conversion factor (7.5) for collagen from hydroxyproline concentrations (Neuman R. and Logan M, J Biol Chem., 186(2):549-56, 1950, incorporated by reference).
# Next, the effect of increasing doses of MK2 peptide inhibitors on collagen deposition was examined in vivo using the bleomycin mouse model of idiopathic pulmonary fibrosis (prevention model). Briefly, C57-BL/6 mice were subjected to bleomycin injury at day 0.
# [8] = tested on: human fetal lung fibroblasts (IMR-90), fibronectin; assay: TGF-β-mediated fibronectin expression; type: cell-based; settings: 1 h pre-treatment, then TGF-β1 (2 ng/ml) 72 h
# Experimental: Fibronection was measured as secreted fragments in the conditioned media. Equal amounts (14 μg) of total proteins from the conditioned media were loaded in each lane.
# [9] = tested on: TNF-α; assay: Plasma cytokine level, bleomycin treatment model; type: in vivo, mouse; settings: 24 hours after final administration
# [10] = tested on: MLCK (h); assay: Kinase Profiling Assay; type: biochemical, human; settings: 100 μM
# Experimental: (§2) Every kinase activity measurement was conducted in duplicate.
# (§3) Specifically, in these assays, a positively charged substrate is phosphorylated with a radiolabeled phosphate group from an ATP if the kinase is not inhibited by an inhibitor peptide. The positively charged substrate then is attracted to a negatively charged filter membrane, quantified with a scintillation counter, and compared to a 100% activity control.
# (§4) In addition to determining the IC50 of the compound, the specificity of MK2 inhibitory peptides was assessed by examining activities of all 266 human kinases available for testing in the Millipore kinase profiling service (Table 1).
# [11] = tested on: SGK (h); assay: Kinase Profiling Assay; type: biochemical, human; settings: 100 μM
# Experimental: as §2, §3, §4
# [12] = biological target: MAPKAP-K2 (h) (Homo sapiens, UniProt P49137); assay: Kinase Profiling Assay; type: biochemical; settings: read-out: inhibition of kinase activity of MK2
# Experimental: as §2, §3, §4
# [13] = biological target: MAPKAP-K3 (h) (Homo sapiens, UniProt Q16644); assay: Kinase Profiling Assay; type: biochemical; settings: read-out: inhibition of kinase activity of MK3
# Experimental: as §2, §3, §4
# [14] = biological target: T1, p70S6K (h) (Homo sapiens, UniProt P23443); assay: Kinase Profiling Assay; type: biochemical
# T1 construct: purchased Millipore
# Experimental: as §2, §3, §4
# [15] = biological target: TrkB (h) (Homo sapiens, UniProt Q16620); assay: Kinase Profiling Assay; type: biochemical; settings: read-out: inhibition of kinase activity of TrkB
# Experimental: as §2, §3, §4
# MAPKAP-K3 (h), sequence (Q16644 whole entry): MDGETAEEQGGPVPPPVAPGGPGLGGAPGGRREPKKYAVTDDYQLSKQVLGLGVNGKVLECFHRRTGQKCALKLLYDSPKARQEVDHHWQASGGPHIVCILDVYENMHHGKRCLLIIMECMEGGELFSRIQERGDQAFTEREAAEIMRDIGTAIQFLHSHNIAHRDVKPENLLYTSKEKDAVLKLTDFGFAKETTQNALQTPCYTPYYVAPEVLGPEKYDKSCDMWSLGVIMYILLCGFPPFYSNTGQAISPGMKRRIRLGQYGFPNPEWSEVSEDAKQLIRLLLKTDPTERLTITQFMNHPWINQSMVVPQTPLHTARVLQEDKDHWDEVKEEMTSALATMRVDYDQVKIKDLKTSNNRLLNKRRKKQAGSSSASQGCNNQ
# T1 sequence (P23443 whole entry): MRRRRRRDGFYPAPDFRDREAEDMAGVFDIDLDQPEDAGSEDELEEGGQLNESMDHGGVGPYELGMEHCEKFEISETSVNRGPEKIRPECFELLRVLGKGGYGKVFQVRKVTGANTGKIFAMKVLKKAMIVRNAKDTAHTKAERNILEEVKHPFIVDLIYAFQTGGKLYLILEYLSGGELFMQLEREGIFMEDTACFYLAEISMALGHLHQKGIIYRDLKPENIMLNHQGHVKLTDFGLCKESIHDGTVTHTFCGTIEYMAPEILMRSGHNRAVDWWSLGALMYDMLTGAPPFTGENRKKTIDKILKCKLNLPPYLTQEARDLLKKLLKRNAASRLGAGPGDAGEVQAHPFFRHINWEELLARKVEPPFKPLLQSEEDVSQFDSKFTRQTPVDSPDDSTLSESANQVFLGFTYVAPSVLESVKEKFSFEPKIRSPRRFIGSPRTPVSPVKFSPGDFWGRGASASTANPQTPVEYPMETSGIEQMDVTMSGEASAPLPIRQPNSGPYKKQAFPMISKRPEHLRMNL
# MAPKAP-K2 (h), sequence (P49137 whole entry): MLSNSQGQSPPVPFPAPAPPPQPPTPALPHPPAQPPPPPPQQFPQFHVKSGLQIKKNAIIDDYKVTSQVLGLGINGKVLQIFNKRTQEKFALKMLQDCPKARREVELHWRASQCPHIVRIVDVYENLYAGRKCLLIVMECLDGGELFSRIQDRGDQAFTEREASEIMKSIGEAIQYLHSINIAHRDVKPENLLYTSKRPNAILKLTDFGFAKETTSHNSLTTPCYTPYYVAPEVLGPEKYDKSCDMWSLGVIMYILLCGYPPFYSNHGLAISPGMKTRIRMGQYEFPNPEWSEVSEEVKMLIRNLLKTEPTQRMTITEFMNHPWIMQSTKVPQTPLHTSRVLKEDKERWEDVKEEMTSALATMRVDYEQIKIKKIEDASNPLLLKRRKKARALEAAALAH
# TrkB (h), sequence (Q16620 32-822): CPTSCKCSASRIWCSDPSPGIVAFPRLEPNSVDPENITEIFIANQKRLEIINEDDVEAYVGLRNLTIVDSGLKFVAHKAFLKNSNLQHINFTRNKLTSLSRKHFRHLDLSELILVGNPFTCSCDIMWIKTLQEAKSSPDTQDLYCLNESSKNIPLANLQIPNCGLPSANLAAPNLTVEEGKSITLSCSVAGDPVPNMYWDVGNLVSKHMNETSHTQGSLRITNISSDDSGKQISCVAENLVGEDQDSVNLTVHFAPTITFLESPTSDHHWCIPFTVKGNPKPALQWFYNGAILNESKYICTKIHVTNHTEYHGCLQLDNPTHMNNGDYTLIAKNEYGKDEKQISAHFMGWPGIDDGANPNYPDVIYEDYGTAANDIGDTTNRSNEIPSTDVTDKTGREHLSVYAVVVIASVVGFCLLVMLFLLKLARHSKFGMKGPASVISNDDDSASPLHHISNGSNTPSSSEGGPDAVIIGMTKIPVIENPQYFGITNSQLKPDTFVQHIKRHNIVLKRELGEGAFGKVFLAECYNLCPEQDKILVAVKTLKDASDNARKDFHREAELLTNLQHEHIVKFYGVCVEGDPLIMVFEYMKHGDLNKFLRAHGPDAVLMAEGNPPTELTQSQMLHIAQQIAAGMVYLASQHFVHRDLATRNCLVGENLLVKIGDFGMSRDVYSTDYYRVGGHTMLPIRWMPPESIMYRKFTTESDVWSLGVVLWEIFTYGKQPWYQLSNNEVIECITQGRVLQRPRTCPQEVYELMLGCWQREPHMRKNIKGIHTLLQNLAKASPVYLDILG
sequence,measurement,setting,value
YARAAARQARAKALARQLGVAA [MMI-0100],toxicity (proliferative response of splenic T cells to α-CD3),"[1]; 50 μg/kg/day, day 7 to 21",no toxicity
same,systemic distribution,"[1]; nebulized, inferred from lack of splenic T cell response",little systemic distribution
same,phospho-Thr^334-MAPKAPK2 staining (activated form of MK2) in lung,[2]; 50 μg/kg daily intraperitoneal,decreased phospho-Thr^334-MAPKAPK2 staining
same,phospho-Thr^334-MAPKAPK2 staining (activated form of MK2) in lung,[2]; 50 μg/kg daily nebulized,as effective as conventional systemic injections in attenuating MK2 activation; also recorded: decreased phospho-Thr^334-MAPKAPK2 staining
same,plasma level of IL-6,[3]; intraperitoneal,significantly reduced
same,plasma level of IL-6,[3]; nebulized,significantly reduced
same,"collagen deposition (hydroxyproline assay, whole left lung)",[4]; 50 μg/kg/day IP from day 14,arrests significant collagen deposition; also recorded: significantly arrested further progression of collagen deposition
same,"collagen deposition (hydroxyproline assay, whole left lung)",[4]; 50 μg/kg/day nebulizer from day 14,arrests significant collagen deposition; also recorded: significantly arrested further progression of collagen deposition
same,"lung scarring, histology (H&E and Masson's blue trichrome)",[4]; intraperitoneal,ameliorates bleomycin-induced lung fibrosis; also recorded: rescued
same,"lung scarring, histology (H&E and Masson's blue trichrome)",[4]; nebulized,ameliorates bleomycin-induced lung fibrosis; also recorded: rescued
same,level of α-SMA in bleomycin-injured lungs,[5]; 50 μg/kg/day intraperitoneal,inhibits myofibroblast alpha-smooth muscle actin (α-SMA) activation; also recorded: significantly attenuated
same,level of α-SMA in bleomycin-injured lungs,[5]; 50 μg/kg/day nebulizer,inhibits myofibroblast alpha-smooth muscle actin (α-SMA) activation; also recorded: significantly attenuated
same,protein level of α-smooth muscle actin (α-SMA),[6],effectively prevented myofibroblast activation
same,"collagen levels in the lung (Masson's blue trichrome staining), dose response","[7]; 25, 50 or 75 μg/kg daily IP, day 7 through day 21",prevents fibrosis due to bleomycin injury in a dose-dependent manner; also recorded: decrease in collagen levels
same,collagen accumulation (Masson's Trichrome staining),[7]; intraperitoneal,reduced collagen accumulation
same,fibrotic loci formation / lung fibrosis (H&E staining),[7]; intraperitoneal,protects against bleomycin-induced lung fibrosis; also recorded: significantly reduced development of fibrotic loci formation
same,collagen accumulation (Masson's Trichrome staining),[7]; nebulization,reduced collagen accumulation
same,fibrotic loci formation / lung fibrosis (H&E staining),[7]; nebulization,protects against bleomycin-induced lung fibrosis; also recorded: significantly reduced development of fibrotic loci formation
same,protein level of fibronectin (secreted fragments in conditioned media),[8],effectively prevented myofibroblast activation
same,plasma level of TNF-α,[9]; intraperitoneal,significantly reduced
same,plasma level of TNF-α,[9]; nebulized,significantly reduced
same,% activity,[10],85%
same,% activity,[11],128%
same,inhibition at 100 µM,[12],> 65%
same,inhibition at 100 µM,[13],> 65%
same,activity at 100 µM,[14],89%
same,inhibition at 100 µM,[15],> 65%

# Source: patent publication US10500249B2, “Compositions and methods for preventing or treating diseases, conditions, or processes characterized by aberrant fibroblast proliferation and extracellular matrix deposition” (MOERAE MATRIX, INC., priority 2014, dated 2019)
